# Laboratory results published in patent US20250326749A1, “COMPOUNDS, COMPOSITIONS, AND METHODS OF USING THEREOF” (Sionna Therapeutics Inc., priority 2022, published 2025).
# Biological target: T1, ΔF508-CFTR (Homo sapiens, UniProt P13569, DEL508-508)
# T1 construct: expressed in transfected cells; host or cells: CFSMEo- (human CF submucosal gland epithelial cells, ΔF508/Q2X), transiently transfected by nucleofection
# Experiment: ΔF508-CFTR-HRP trafficking assay (cell surface expression of ΔF508-CFTR)
# Format: cell-based
# Details: CFSMEo- cells transiently transfected with ΔF508-CFTR-HRP; test agent 3 μM, 48 h; HRP chemiluminescence
# Text: Test agents were screened for their effect on cell surface expression of ΔF508-CFTR using the ΔF508-CFTR-HRP trafficking assay. For this assay, a ΔF508-CFTR expression construct was designed with an in-frame insertion of a horseradish peroxidase (HRP) tag into the 4th extracellular loop of CFTR. The HRP tag would be presented extracellularly, in cells transiently transfected with the ΔF508-CFTR-HRP construct, following correction of the ΔF508-CFTR trafficking defect. The quantity of ΔF508-CFTR-HRP expressed on the plasma membrane could therefore be determined by measuring an HRP-dependent signal after the application of a cell-impermeable HRP substrate.
# In brief, CF submucosal gland epithelial cells (CFSMEo-), derived from the airways of a CF patient (ΔF508/Q2X) and provided by Dr. Dieter Gruenert, University of California-San Francisco, were cultured at 37° C. with 5% CO2 in minimum essential medium (MEM) with Earle's salt and nonessential amino acids, supplemented with 10% (volume per volume [v/v]) fetal bovine serum, 2 mM L-glutamine and 1× (v/v) penicillin/streptomycin and grown in tissue culture-treated flasks coated with an extracellular matrix (ECM) cocktail consisting of 10 μg/mL human fibronectin, 30 μg/mL bovine collagen type I, and 100 μg/mL bovine serum albumin in LHC basal medium. These CFSMEo^− cells were transiently transfected with 4 μg of the ΔF508-CFTR-HRP expression construct using the Lonza 4D-Nucleofector Core unit (Lonza, Catalogue No. AAF-1002B) with the X unit (Lonza, Catalogue No. AAF-1002X) and SF Cell Line 4D-Nucleofector X Kit L (Lonza, Catalogue No. V4XC-2024) according to the manufacturer's instructions and plated at 1.2×10^4 cells/well onto collagen-coated, 96-well plates (Corning Inc.). Twenty-four h post-transfection, cells were treated with test agents, solubilized in DMSO at a concentration of 3 μM in replicates of 3, and allowed to incubate for 48 h. To detect HRP expression, cell culture media was removed, cells were washed with PBS and 100 μL of Luminata Forte HRP chemiluminescent substrate (EMD Millipore, Burlington, MA) was added to each well. Following a 5-minute incubation, chemiluminescence was measured in relative luminescent units (RLUs) using an EnVision plate reader (Perkin Elmer, Waltham, MA).
# The ΔF508-CFTR-HRP trafficking data was normalized to the vehicle treated control (0.3% DMSO), followed by calculation of the mean, standard deviation, and standard error. If the test agent increased cell surface expression of ΔF508-CFTR-HRP relative to the vehicle-treated control, then that test agent was considered a ΔF508-CFTR corrector. Based on the description above, the biological activity of the examples in this disclosure is collected in Table 2.
# T1 sequence (P13569 with tags, fused parts or gaps DEL508-508): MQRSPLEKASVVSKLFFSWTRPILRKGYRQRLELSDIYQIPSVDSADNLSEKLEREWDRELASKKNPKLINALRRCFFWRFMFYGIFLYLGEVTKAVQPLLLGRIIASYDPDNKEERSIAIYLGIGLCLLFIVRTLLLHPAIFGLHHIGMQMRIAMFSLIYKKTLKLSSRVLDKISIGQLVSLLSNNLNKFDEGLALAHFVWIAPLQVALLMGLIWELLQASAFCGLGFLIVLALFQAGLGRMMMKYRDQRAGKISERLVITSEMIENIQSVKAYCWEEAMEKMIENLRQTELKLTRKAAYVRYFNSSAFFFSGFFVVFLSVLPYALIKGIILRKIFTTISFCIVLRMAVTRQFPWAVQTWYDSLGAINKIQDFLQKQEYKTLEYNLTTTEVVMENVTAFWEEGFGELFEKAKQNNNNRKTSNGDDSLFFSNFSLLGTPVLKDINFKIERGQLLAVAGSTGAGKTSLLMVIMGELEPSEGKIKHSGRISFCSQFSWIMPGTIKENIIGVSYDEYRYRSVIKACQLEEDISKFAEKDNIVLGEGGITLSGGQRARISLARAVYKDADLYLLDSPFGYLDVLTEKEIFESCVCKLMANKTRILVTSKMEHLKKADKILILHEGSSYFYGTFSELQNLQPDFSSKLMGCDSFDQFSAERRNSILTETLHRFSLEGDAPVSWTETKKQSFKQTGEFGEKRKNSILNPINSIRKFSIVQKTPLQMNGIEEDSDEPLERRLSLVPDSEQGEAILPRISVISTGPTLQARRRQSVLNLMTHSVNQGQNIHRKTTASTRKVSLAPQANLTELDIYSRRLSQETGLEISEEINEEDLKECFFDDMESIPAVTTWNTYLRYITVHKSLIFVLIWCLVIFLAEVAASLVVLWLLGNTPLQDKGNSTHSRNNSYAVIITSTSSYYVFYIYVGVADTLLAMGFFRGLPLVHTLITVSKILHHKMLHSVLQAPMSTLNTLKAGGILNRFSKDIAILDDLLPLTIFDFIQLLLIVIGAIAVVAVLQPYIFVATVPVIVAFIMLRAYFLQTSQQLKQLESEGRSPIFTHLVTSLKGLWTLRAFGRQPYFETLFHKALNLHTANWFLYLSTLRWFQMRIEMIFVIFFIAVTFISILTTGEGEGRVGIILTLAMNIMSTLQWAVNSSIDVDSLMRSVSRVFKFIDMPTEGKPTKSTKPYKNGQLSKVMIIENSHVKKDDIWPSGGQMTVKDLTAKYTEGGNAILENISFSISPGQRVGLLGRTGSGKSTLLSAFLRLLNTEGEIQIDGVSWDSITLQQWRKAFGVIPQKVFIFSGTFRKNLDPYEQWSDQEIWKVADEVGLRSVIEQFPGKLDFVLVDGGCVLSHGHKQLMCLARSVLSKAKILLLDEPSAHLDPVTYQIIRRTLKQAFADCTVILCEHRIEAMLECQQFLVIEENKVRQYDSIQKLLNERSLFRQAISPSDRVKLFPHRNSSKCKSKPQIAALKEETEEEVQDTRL
row,SMILES,RLUs: ΔF508-CFTR-HRP trafficking data normalized to the vehicle treated control (0.3% DMSO)
1,"C[C@H](Oc1cncc(-n2nc(C(F)(F)F)c3c2[C@H](CN2CCC(C(=O)O)CC2)CCC3)c1)c1ccc2c(c1)OC(F)(F)O2 (single isomer, unassigned) [124 (P2)]",B (RLU 3.5 μM-5.0 μM)
2,"C[C@H](Oc1cc(-n2nc(C(F)(F)F)c3c2[C@@H](CN2CCC(C(=O)O)CC2)CCC3)ccn1)c1ccc2c(c1)OC(F)(F)O2 (single isomer, unassigned) [125 (P1)]",A (RLU 5.0 μM-10 μM)
3,"C[C@H](Oc1cc(-n2nc(C(F)(F)F)c3c2N(CC24CC(C(=O)O)(C2)C4)CCC3)cnn1)c1cc2c(cn1)OC(F)(F)O2 (single isomer, unassigned) [Example 2]",C (RLU 0.0 μM-3.5 μM)
4,"C[C@@H](Oc1cc(-n2nc(C(F)(F)F)c3c2N(CC24CC(C(=O)O)(C2)C4)CCC3)cnn1)c1ccc2c(c1)OC(F)(F)O2 (single isomer, unassigned) [Example 5]",A (RLU 5.0 μM-10 μM)
5,"C[C@H](Oc1cc(-n2nc(C(F)(F)F)c3c2N(CC24CC(C(=O)O)(C2)C4)CCC3)cnn1)c1ccc2c(c1)OC(F)(F)O2 (single isomer, unassigned) [Example 6]",C (RLU 0.0 μM-3.5 μM)
6,"C[C@H](Oc1cncc(-n2nc(C(F)(F)F)c3c2N(Cc2ccc(C(=O)O)cc2)CCC3)c1)c1ccc2c(c1)OC(F)(F)O2 (single isomer, unassigned) [Example 12]",C (RLU 0.0 μM-3.5 μM)
7,"C[C@H](Oc1cc(-n2nc(C(F)(F)F)c3c2[C@H](Oc2ccc(C(=O)O)cc2)CCC3)ccn1)c1ccc2c(c1)OC(F)(F)O2 (single isomer, unassigned) [Example 23]",C (RLU 0.0 μM-3.5 μM)
8,"C[C@H](Oc1cccc(-n2nc(C(F)(F)F)c3c2[C@H](Oc2ccc(C(=O)O)cc2)CCC3)c1)c1ccc2c(c1)OC(F)(F)O2 (single isomer, unassigned) [Example 26]",A (RLU 5.0 μM-10 μM)
9,"C[C@H](Oc1cncc(-n2nc(C(F)(F)F)c3c2[C@@H](Oc2ccc(C(=O)O)cc2)CCC3)c1)c1ccc2c(c1)OC(F)(F)O2 (single isomer, unassigned) [Example 27]",C (RLU 0.0 μM-3.5 μM)
10,"C[C@@H](Oc1cccc(-n2nc(C(F)(F)F)c3c2C(Oc2ccc(C(=O)O)cc2)CCC3)c1)c1ccc2c(c1)OC(F)(F)O2 (single isomer, unassigned) [Example 28]",A (RLU 5.0 μM-10 μM)
11,"Cc1cc(OC2CCCc3c(C(F)(F)F)nn(-c4cccc(O[C@H](C)c5cc6c(cc5F)OC(F)(F)O6)c4)c32)ccc1C(=O)O (single isomer, unassigned) [Example 34]",B (RLU 3.5 μM-5.0 μM)
12,"C[C@H](Oc1ccnc(-n2nc(C(F)(F)F)c3c2[C@@H](Oc2ccc(C(=O)O)cc2)CCC3)c1)c1ccc2c(c1)OC(F)(F)O2 (single isomer, unassigned) [Example 36b]",A (RLU 5.0 μM-10 μM)
13,"C[C@H](Oc1cc(-n2nc(C(F)(F)F)c3c2[C@@H](Oc2ccc(C(=O)O)cc2)CCC3)cnc1F)c1cc2c(cc1F)OC(F)(F)O2 (single isomer, unassigned) [Example 36d]",B (RLU 3.5 μM-5.0 μM)

# The next lines start with the values.
row,RLUs: ΔF508-CFTR-HRP trafficking data normalized to the vehicle treated control (0.3% DMSO),SMILES
1,A (RLU 5.0 μM-10 μM),"C[C@H](Oc1cc(-n2nc(C(F)(F)F)c3c2[C@H](CN2CCC(C(=O)O)CC2)CCC3)ccn1)c1ccc2c(c1)OC(F)(F)O2 (single isomer, unassigned) [125 (P2)]"
2,C (RLU 0.0 μM-3.5 μM),"C[C@@H](Oc1cc(-n2nc(C(F)(F)F)c3c2N(CC24CC(C(=O)O)(C2)C4)CCC3)cnn1)c1cc2c(cn1)OC(F)(F)O2 (single isomer, unassigned) [Example 1]"
3,C (RLU 0.0 μM-3.5 μM),"C[C@@H](Oc1cc(-n2nc(C(F)(F)F)c3c2N(Cc2ccc(C(=O)O)cc2)CCC3)cnn1)c1ccc2c(c1)OC(F)(F)O2 (single isomer, unassigned) [Example 3]"
4,B (RLU 3.5 μM-5.0 μM),"C[C@H](Oc1cc(-n2nc(C(F)(F)F)c3c2N(Cc2ccc(C(=O)O)cc2)CCC3)cnn1)c1ccc2c(c1)OC(F)(F)O2 (single isomer, unassigned) [Example 4]"
5,A (RLU 5.0 μM-10 μM),"C[C@H](Oc1cc(-n2nc(C(F)(F)F)c3c2N(C[C@H]2CC[C@H](C(=O)O)CC2)CCC3)ccn1)c1ccc2c(c1)OC(F)(F)O2 (single isomer, unassigned) [Example 7]"
6,A (RLU 5.0 μM-10 μM),"C[C@H](Oc1cc(-n2nc(C(F)(F)F)c3c2N(CC24CCC(C(=O)O)(CC2)CC4)CCC3)ccn1)c1ccc2c(c1)OC(F)(F)O2 (single isomer, unassigned) [Example 9]"
7,A (RLU 5.0 μM-10 μM),"C[C@H](Oc1cncc(-n2nc(C(F)(F)F)c3c2N(CC24CCC(C(=O)O)(CC2)CC4)CCC3)c1)c1ccc2c(c1)OC(F)(F)O2 (single isomer, unassigned) [Example 14]"
8,B (RLU 3.5 μM-5.0 μM),"C[C@H](Oc1cccc(-n2nc(C(F)(F)F)c3c2N(C(=O)c2ccc(C(=O)O)cc2)CCC3)c1)c1ccc2c(c1)OC(F)(F)O2 (single isomer, unassigned) [Example 15]"
9,C (RLU 0.0 μM-3.5 μM),"C[C@H](Oc1cncc(-n2nc(C(F)(F)F)c3c2N(C(=O)c2ccc(C(=O)O)cc2)CCC3)c1)c1ccc2c(c1)OC(F)(F)O2 (single isomer, unassigned) [Example 16]"
10,C (RLU 0.0 μM-3.5 μM),"C[C@H](Oc1cncc(-n2nc(C(F)(F)F)c3c2N(C(=O)[C@H]2CC[C@H](C(=O)O)CC2)CCC3)c1)c1ccc2c(c1)OC(F)(F)O2 (single isomer, unassigned) [Example 17]"
11,B (RLU 3.5 μM-5.0 μM),"C[C@H](Oc1cccc(-n2nc(C(F)(F)F)c3c2[C@@H](Oc2ccc(C(=O)O)cc2)CCC3)c1)c1ccc2c(c1)OC(F)(F)O2 (single isomer, unassigned) [Example 25]"
12,C (RLU 0.0 μM-3.5 μM),"C[C@H](Oc1cc(-n2nc(C(F)(F)F)c3c2[C@@H](Oc2ccc(C(=O)O)cc2)CCC3)ccc1F)c1ccc2c(c1)OC(F)(F)O2 (single isomer, unassigned) [Example 36]"
13,A (RLU 5.0 μM-10 μM),"C[C@H](Oc1cc(-n2nc(C(F)(F)F)c3c2[C@@H](Oc2ccc(C(=O)O)cc2)CCC3)ccn1)c1cc2c(cc1F)OC(F)(F)O2 (single isomer, unassigned) [Example 36a]"
14,B (RLU 3.5 μM-5.0 μM),"C[C@H](Oc1cccc(-n2nc(C(F)(F)F)c3c2[C@@H](Oc2ccc(C(=O)O)cc2)CCC3)n1)c1ccc2c(c1)OC(F)(F)O2 (single isomer, unassigned) [Example 36c]"
